Tests used:
[1] = biological target: human CB2 receptors (Homo sapiens (Human), UniProt P34972); experiment: functional cAMP assay, CHO cells expressing human CB2 receptors; format: cell-based
Experimental: (§1) CHO cells expressing human CB1 or CB2 receptors are seeded 17-24 hours prior to the experiment 50.000 cells per well in a black 96 well plate with flat clear bottom (Corning Costar #3904) in DMEM (Invitrogen No. 31331), 1×HT supplement, with 10% fetal calf serum and incubated at 5% CO2 and 37° C. in a humidified incubator. The growth medium was exchanged with Krebs Ringer Bicarbonate buffer with 1 mM IBMX and incubated at 30° C. for 30 min. Compounds were added to a final assay volume of 100 μl and incubated for 30 min at 30° C. Using the cAMP-Nano-TRF detection kit the assay (Roche Diagnostics) was stopped by the addition of 50 μl lysis reagent (Tris, NaCl, 1.5% Triton X100, 2.5% NP40, 10% NaN3) and 50 μl detection solutions (20 μM mAb Alexa700-cAMP 1:1, and 48 μM Ruthenium-2-AHA-cAMP) and shaken for 2 h at room temperature. The time-resolved energy transfer is measured by a TRF reader (Evotec Technologies GmbH), equipped with a ND:YAG laser as excitation source. The plate is measured twice with the excitation at 355 nm and at the emission with a delay of 100 ns and a gate of 100 ns, total exposure time 10 s at 730 (bandwidth 30 nm) or 645 nm (bandwidth 75 nm), respectively. The FRET signal is calculated as follows: FRET=T730-Alexa730-P(T645-B645) with P=Ru730-B730/Ru645-B645, where T730 is the test well measured at 730 nM, T645 is the test well measured at 645 nm, B730 and B645 are the buffer controls at 730 nm and 645 nm, respectively. cAMP content is determined from the function of a standard curve spanning from 10 μM to 0.13 nM cAMP.
(§2) EC50 values were determined using Activity Base analysis (ID Business Solution, Limited). The EC50 values for a wide range of cannabinoid agonists generated from this assay were in agreement with the values published in the scientific literature.

[2] = biological target: human CB1 receptors (Homo sapiens (Human), UniProt P21554); experiment: functional cAMP assay, CHO cells expressing human CB1 receptors; format: cell-based
Experimental: as §1, §2

Sequence of human CB1 receptors (P21554 whole entry): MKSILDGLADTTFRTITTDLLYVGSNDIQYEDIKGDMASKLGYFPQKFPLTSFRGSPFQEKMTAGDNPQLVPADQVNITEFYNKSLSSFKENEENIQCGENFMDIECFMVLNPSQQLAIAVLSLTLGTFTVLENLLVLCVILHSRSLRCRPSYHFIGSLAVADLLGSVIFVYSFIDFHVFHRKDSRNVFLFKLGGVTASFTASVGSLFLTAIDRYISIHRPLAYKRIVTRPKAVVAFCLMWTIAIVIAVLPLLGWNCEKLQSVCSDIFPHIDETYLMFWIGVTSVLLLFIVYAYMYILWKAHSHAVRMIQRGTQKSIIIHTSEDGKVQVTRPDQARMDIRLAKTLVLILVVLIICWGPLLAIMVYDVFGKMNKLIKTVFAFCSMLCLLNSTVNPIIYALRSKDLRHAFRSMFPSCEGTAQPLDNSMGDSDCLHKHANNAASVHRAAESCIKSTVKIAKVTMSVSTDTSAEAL
Sequence of human CB2 receptors (P34972 whole entry): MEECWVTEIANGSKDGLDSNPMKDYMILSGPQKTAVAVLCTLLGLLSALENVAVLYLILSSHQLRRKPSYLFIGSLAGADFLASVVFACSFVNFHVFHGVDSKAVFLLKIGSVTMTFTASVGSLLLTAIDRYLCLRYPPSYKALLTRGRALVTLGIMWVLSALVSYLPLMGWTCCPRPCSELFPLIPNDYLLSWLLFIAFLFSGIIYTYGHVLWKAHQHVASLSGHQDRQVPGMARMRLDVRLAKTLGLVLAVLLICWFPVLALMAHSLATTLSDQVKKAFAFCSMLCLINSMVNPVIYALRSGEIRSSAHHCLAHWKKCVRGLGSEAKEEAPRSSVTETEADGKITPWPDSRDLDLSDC

SMILES | EC50 [1] [nM] | EC50 [2] [nM]
NC(=O)[C@@H]1C[C@H](F)CN1C(=O)c1ccc(C2CC2)c(OCC2CC2)n1 [Example 69, (2S,4S)-1-(5-Cyclopropyl-6-cyclopropylmethoxy-pyridine-2-carbonyl)-4-fluoro-pyrrolidine-2-carboxylic acid amide] | 1040 | > 10000
O=C(c1ccc(N2CC(F)(F)C2)c(OCC2CC2)n1)N1C[C@H]2COC[C@H]2C1 [Example 146, [(3aR,6aS)-1,3,3a,4,6,6a-Hexahydrofuro[3,4-c]pyrrol-5-yl]-[6-(cyclopropylmethoxy)-5-(3,3-difluoroazetidin-1-yl)pyridin-2-yl]methanone] | 167 | > 10000
O=C(c1ccc(C2CC2)c(OCC2CC2)n1)N1CCC(O)(C(F)(F)F)C1 (centres unmarked) [Example 143, [5-Cyclopropyl-6-(cyclopropylmethoxy)pyridin-2-yl]-[3-hydroxy-3-(trifluoromethyl)pyrrolidin-1-yl]methanone] | 87.8 | > 10000
Cc1cn(C)nc1N(C)C(=O)c1ccc(N2CC(F)(F)C2)c(OCC2CC2)n1 [Example 54, 6-Cyclopropylmethoxy-5-(3,3-difluoro-azetidin-1-yl)-pyridine-2-carboxylic acid (1,4-dimethyl-1H-pyrazol-3-yl)-methyl-amide] | 462 | > 10000
NC(=O)C1CSCN1C(=O)c1ccc(N2CC(F)(F)C2)c(OCC2CC2)n1 (centres unmarked) [Example 122, 3-[6-Cyclopropylmethoxy-5-(3,3-difluoro-azetidin-1-yl)-pyridine-2-carbonyl]-thiazolidine-4-carboxylic acid amide] | 50 | > 10000
CC(C)(C)N(Cc1ccccc1)C(=O)c1ccc(N2CC(F)(F)C2)c(OCC2CC2)n1 [Example 25, 6-Cyclopropylmethoxy-5-(3,3-difluoro-azetidin-1-yl)-pyridine-2-carboxylic acid benzyl-tert-butyl-amide] | 37 | > 10000
CC1(O)CCN(C(=O)c2ccc(N3CC(F)(F)C3)c(OCC3CC3)n2)C1 (centres unmarked) [Example 37, [6-Cyclopropylmethoxy-5-(3,3-difluoro-azetidin-1-yl)-pyridin-2-yl]-(3-hydroxy-3-methyl-pyrrolidin-1-yl)-methanone] | 364 | > 10000
Cn1nnnc1CN(C(=O)c1ccc(N2CC(F)(F)C2)c(OCC2CC2)n1)C(C)(C)C [Example 40, 6-Cyclopropylmethoxy-5-(3,3-difluoro-azetidin-1-yl)-pyridine-2-carboxylic acid tert-butyl-(1-methyl-1H-tetrazol-5-ylmethyl)-amide] | 81.8 | > 10000
O=C(c1ccc(N2CC(F)(F)C2)c(OCC2CC2)n1)N1CC2(C1)CS(=O)(=O)C2 [Example 71, [6-Cyclopropylmethoxy-5-(3,3-difluoro-azetidin-1-yl)-pyridin-2-yl]-(2,2-dioxo-2λ6-thia-6-aza-spiro[3.3]hept-6-yl)-methanone] | 444 | > 10000
Cc1nc([C@H](CC2CC2)N(C)C(=O)c2ccc(N3CC(F)(F)C3)c(OCC3CC3)n2)no1 [Example 32, 6-Cyclopropylmethoxy-5-(3,3-difluoro-azetidin-1-yl)-pyridine-2-carboxylic acid [(S)-2-cyclopropyl-1-(5-methyl-[1,2,4]oxadiazol-3-yl)-ethyl]-methyl-amide] | 256 | > 10000
O=C(c1ccc(N2CC(F)(F)C2)c(OCC2CC2)n1)N1CCC(O)(C(F)(F)F)C1 (centres unmarked) [Example 138, [6-(Cyclopropylmethoxy)-5-(3,3-difluoroazetidin-1-yl)pyridin-2-yl]-[3-hydroxy-3-(trifluoromethyl)pyrrolidin-1-yl]methanone] | 83.5 | > 10000
CC(C)(C)OC(=O)N1CCC2(CCCN2C(=O)c2ccc(N3CC(F)(F)C3)c(OCC3CC3)n2)CC1 [Example 74, 1-[6-Cyclopropylmethoxy-5-(3,3-difluoro-azetidin-1-yl)-pyridine-2-carbonyl]-1,8-diaza-spiro[4.5]decane-8-carboxylic acid tert-butyl ester] | 11.5 | > 10000
NC(=O)C1CCCN1C(=O)c1ccc(N2CC(F)(F)C2)c(OCC2CC2)n1 (centres unmarked) [Example 114, 1-[6-Cyclopropylmethoxy-5-(3,3-difluoro-azetidin-1-yl)-pyridine-2-carbonyl]-pyrrolidine-2-carboxylic acid amide] | 473 | > 10000
CC1(F)CN(C(=O)c2ccc(N3CC(F)(F)C3)c(OCC3CC3)n2)C1 [Example 149, [6-(Cyclopropylmethoxy)-5-(3,3-difluoroazetidin-1-yl)-2-pyridyl]-(3-fluoro-3-methyl-azetidin-1-yl)methanone] | 79 | > 10000
O=C(O)C1C2CN(C(=O)c3ccc(N4CC(F)(F)C4)c(OCC4CC4)n3)CC21 (centres unmarked) [Example 110, 3-[6-Cyclopropylmethoxy-5-(3,3-difluoro-azetidin-1-yl)-pyridine-2-carbonyl]-3-aza-bicyclo[3.1.0]hexane-6-carboxylic acid] | 386 | > 10000
Cc1nnc(CN(C(=O)c2ccc(N3CC(F)(F)C3)c(OCC3CC3)n2)C(C)(C)C)o1 [Example 36, 6-Cyclopropylmethoxy-5-(3,3-difluoro-azetidin-1-yl)-pyridine-2-carboxylic acid tert-butyl-(5-methyl-[1,3,4]oxadiazol-2-ylmethyl)-amide] | 226 | > 10000
CC(C)(C)N(CC(=O)O)C(=O)c1ccc(N2CC(F)(F)C2)c(OCC2CC2)n1 [Example 24, {tert-Butyl-[6-cyclopropylmethoxy-5-(3,3-difluoro-azetidin-1-yl)-pyridine-2-carbonyl]-amino}-acetic acid] | 340 | > 10000
CN(CC1CC1)C(=O)c1ccc(N2CC(F)(F)C2)c(OCC2CC2)n1 [Example 105, 6-Cyclopropylmethoxy-5-(3,3-difluoro-azetidin-1-yl)-pyridine-2-carboxylic acid cyclopropylmethyl-methyl-amide] | 218 | > 10000
CN(C(=O)c1ccc(N2CC(F)(F)C2)c(OCC2CC2)n1)C(C)(C)C [Example 1, 6-Cyclopropylmethoxy-5-(3,3-difluoro-azetidin-1-yl)-pyridine-2-carboxylic acid tert-butyl-methyl-amide] | 4.6 | > 10000
NC(=O)[C@@H]1C[C@@H](F)CN1C(=O)c1ccc(C2CC2)c(OCC2CC2)n1 [Example 123, (2S,4R)-1-[5-Cyclopropyl-6-(cyclopropylmethoxy)pyridine-2-carbonyl]-4-fluoropyrrolidine-2-carboxamide] | 58.4 | > 10000
NC(=O)[C@@H]1CCCN1C(=O)c1ccc(C2CC2)c(OCC2CC2)n1 [Example 73, (S)-1-(5-Cyclopropyl-6-cyclopropylmethoxy-pyridine-2-carbonyl)-pyrrolidine-2-carboxylic acid amide] | 636 | > 10000
Cc1nc(C(C2CC2)N(C)C(=O)c2ccc(C3CC3)c(OCC3CCOCC3)n2)no1 (centres unmarked) [Example 33, 5-Cyclopropyl-6-(tetrahydro-pyran-4-ylmethoxy)-pyridine-2-carboxylic acid [cyclopropyl-(5-methyl-[1,2,4]oxadiazol-3-yl)-methyl]-methyl-amide] | 55.4 | > 10000
NC(=O)[C@@H]1C[S@+]([O-])CN1C(=O)c1ccc(C2CC2)c(OCC2CC2)n1 (single isomer, unassigned) [Example 116, (1S,4R)-3-(5-Cyclopropyl-6-cyclopropylmethoxy-pyridine-2-carbonyl)-1-oxo-1λ^4-thiazolidine-4-carboxylic acid amide or (1R,4S)-3-(5-cyclopropyl-6-cyclopropylmethoxy-pyridine-2-carbonyl)-1-oxo-1λ^4-thiazolidine-4-carboxylic acid amide] | 672 | > 10000
CN(C(=O)c1ccc(N2CC(F)(F)C2)c(OCC2CC2)n1)C(C)(C)COC(=O)c1ccc(N2CC(F)(F)C2)c(OCC2CC2)n1 [Example 12, 6-Cyclopropylmethoxy-5-(3,3-difluoro-azetidin-1-yl)-pyridine-2-carboxylic acid 2-{[6-cyclopropylmethoxy-5-(3,3-difluoro-azetidin-1-yl)-pyridine-2-carbonyl]-methyl-amino}-2-methyl-propyl ester] | 134 | > 10000
COC(=O)C1CCCN1C(=O)c1ccc(N2CC(F)(F)C2)c(OCC2CC2)n1 (centres unmarked) [Example 108, 1-[6-Cyclopropylmethoxy-5-(3,3-difluoro-azetidin-1-yl)-pyridine-2-carbonyl]-pyrrolidine-2-carboxylic acid methyl ester] | 156 | > 10000

— US9303012B2, “Pyridine-2-amides useful as CB2 agonists” (Hoffmann-La Roche Inc., priority 2012, dated 2016)
